Values quoted from earlier work as cited in PMC11956011, “An Amazing 30-Year Journey around the DABO Family: A Medicinal Chemistry Lesson on a Versatile Class of Non-nucleoside HIV-1 Reverse Transcriptase Inhibitors” (Journal of Medicinal Chemistry, 2025).
Values after ≈ are worked out from the molar mass of the structure shown. Read-outs that look alike come from different tables or passages of the source.

What was measured:
HIV-1 [1] = system: HIV-1; parameters: method as in PMID 5787520; details: 3.5 μM; MoI = 5 CCID50/cell; 40 days
HIV-1 [2] = system: HIV-1
[3] = system: Y181C HIV-1 mutant strain
[4] = system: E138K HIV-1 mutant strain
Vero cells = system: Vero cells; parameters: method as in doi:10.1016/0223-5234(92)90009-P; details: Fig 2
C8166 cells = system: C8166 cells; parameters: method as in doi:10.1016/0223-5234(92)90009-P; details: Fig 2
HIV-1 [5] = system: HIV-1; parameters: method as in PMID 8602869; details: read-out: syncytia reduction assay in MT-2-infected cells IC50
[6] = system: HIV-1 RT (WT, recombinant); details: Fig 4
HIV-1 [7] = system: HIV-1; parameters: method as in PMID 8602869; details: day 3 and 4 p.i.; read-out: p24 inhibition in PBMC-infected cells IC50
L-697661-R-IIIB (Y181C) = system: L-697661-R-IIIB (Y181C); parameters: method as in PMID 9748354, PMID 9554867; details: read-out: p24 inhibition in MT-4 infected cells, IC90: L-697661-R-IIIB (Y181C)
E233V HIV-1 RT = system: E233V HIV-1 RT; parameters: method as in PMID 9748354, PMID 9554867
R88703-R-IIIB (Y181C) = system: R88703-R-IIIB (Y181C); parameters: method as in PMID 9748354, PMID 9554867; details: read-out: p24 inhibition in MT-4 infected cells, IC90: R88703-R-IIIB (Y181C)
DLV-R-IIIB (L100I) = system: DLV-R-IIIB (L100I); parameters: method as in PMID 9748354, PMID 9554867; details: read-out: p24 inhibition in MT-4 infected cells, IC90: DLV-R-IIIB (L100I)
Y181C HIV-1 RT = system: Y181C HIV-1 RT; parameters: method as in PMID 9748354, PMID 9554867
DLV-R-MF (P236L) = system: DLV-R-MF (P236L); parameters: method as in PMID 9748354, PMID 9554867; details: read-out: p24 inhibition in MT-4 infected cells, IC90: DLV-R-MF (P236L)
Y188H HIV-1 RT = system: Y188H HIV-1 RT; parameters: method as in PMID 9748354, PMID 9554867
HIV-1 IIIB = system: HIV-1 IIIB; parameters: method as in PMID 9748354, PMID 9554867; details: read-out: p24 inhibition in MT-4 infected cells, IC90: IIIB
P236L HIV-1 RT = system: P236L HIV-1 RT; parameters: method as in PMID 9748354, PMID 9554867
V106A HIV-1 RT = details: Fig 4
[8] = parameters: method as in doi:10.1039/c3md00247k; details: mouse models
[9] = parameters: method as in doi:10.1039/c3md00247k, PMID 21752202; details: in vivo
HIV-1IIIB = details: read-out: EC50 anti-HIV-1 activity, further studies
[10] = system: clinical isolates KM018, TC-2, and WAN; details: read-out: EC50 against clinical isolates KM018, TC-2, and WAN
mock-infected cells = details: more cytotoxic
[11] = rats
HBV = details: HBV-infected cells; read-out: HBV DNA IC50
malaria = system: malaria; parameters: method as in PMID 31191911
[12] = system: colon carcinoma HT-29 cells
[13] = system: non-small-cell lung cancer HOP-92 cells; parameters: method as in PMID 21849221; details: at 10 μM

SMILES: Cc1c(C(C)c2c(F)cccc2F)nc(N(C)C)[nH]c1=O (racemic) [compound 116]
- HIV-1 replication in acutely infected cultures after 4 h treatment (HIV-1 [1]): totally suppressed HIV-1 replication
- water solubility (in words): scant water solubility

SMILES: CCc1c(Cc2c(F)cccc2Cl)nc(SCC(=O)Nc2ccccc2)[nH]c1=O [A compound similar to 105–108]
- EC50 (HIV-1 [2]; read-out: EC50 against wild-type): 190 nM
- EC50 [3]: 2130 nM
- EC50 [4]: 2030 nM

SMILES: CCCCOc1nc(Cc2ccc(OC)cc2)cc(=O)[nH]1 [compound 5]
- TD50 Vero (Vero cells): 100 µg/mL
- TD50 C8166 (C8166 cells): 100 µg/mL

SMILES: Nc1cc(Cl)nc(SCc2ccccc2)n1 [compound 19, 4-amino-2-(benzylthio)-6-chloropyrimidine]
- IC50 (HIV-1 [5]): 400 to 4000 nM
- IC50 ([6]; read-out: RT assay IC50): 50000 to 80000 nM
- cytotoxicity in MT-2-infected cells (MT-2 cells): > 16 µM
- cytotoxicity in PBMC-infected cells (PBMC): > 16 µM
- IC50 (HIV-1 [7]): 100 to 1000 nM

SMILES: C[C@H](Sc1nc(N)cc(Cl)n1)c1cc2ccoc2cn1 [compound 21, (−)-6-chloro-2-[(1-furo[2,3-c]pyridin-5-ylethyl)thio]-4-pyrimidinamine]
- IC90 (L-697661-R-IIIB (Y181C)): 1100 nM
- IC50 ([6]; read-out: RT assay, IC50: WT): 20 nM
- IC50 (E233V HIV-1 RT): 17 nM
- IC90 (R88703-R-IIIB (Y181C)): 170 nM
- IC90 (DLV-R-IIIB (L100I)): 70 nM
- IC50 (L100I HIV-1 RT): 39 nM
- IC50 (Y181C HIV-1 RT): 179 nM
- IC90 (DLV-R-MF (P236L)): 8 nM
- IC50 (Y188H HIV-1 RT): 77 nM
- IC90 (HIV-1 IIIB): 1 nM
- IC50 (P236L HIV-1 RT): 22 nM

SMILES: O=c1cc(Cc2ccccc2)nc(NCCCCO)[nH]1 [compound 23, 6-benzyl-N^2-(4-hydroxybutyl)isocytosine]
- Ki [6]: 140000 nM
- Ki (L100I HIV-1 RT; Fig 4): 525000 nM
- Ki (V106A HIV-1 RT): 75000 nM

SMILES: CCCN(C)c1nc(C(C)c2c(F)cccc2F)c(C)c(=O)[nH]1 (centres unmarked) [compound 119]
- EC50 (HIV-2ROD): 8600 nM

SMILES: Cc1c(C(C#N)c2c(F)cccc2F)nc(SC(C)C)[nH]c1=O (centres unmarked) [compound 153]
- oral bioavailability (in words) [8]: optimal oral bioavailability
- acute toxicity (in words) [9]: without acute toxicity
- Fold-resistance E138K (EC50 vs HIV-1IIIB) ([4]; Fig 12, in brackets): 2.4

SMILES: CCc1c(CC2CCCCC2)nc(SCC(=O)c2ccccc2)[nH]c1=O [compound 177]
- EC50 (HIV-1IIIB): 2.4 nM
- EC50 (HIV-1 [2]; read-out: EC50 anti-HIV-1 activity, first report, C8166 cells): 0.012 nM
- EC50 (HIV-1 [2]; read-out: EC50 vs WT HIV-1): 200 nM
- EC50 [10]: 8.74 to 41.8 nM

SMILES: CCc1c(CC2CCCCC2)nc(SCC(=O)c2ccc(OP(=O)(OC)OC)cc2)[nH]c1=O [compound 179]
- Potency against WT HIV-1 with respect to 177 (HIV-1 [2]; more potent): 20 fold
- Cytotoxicity with respect to 177 (mock-infected cells): 4.5 times
- Water solubility with respect to 177 (more water-soluble): 17 fold

SMILES: CCc1c(CC2CCCCC2)nc(SCc2cc(-c3ccc(O)cc3)[nH]n2)[nH]c1=O [compound 180]
- pharmacokinetic properties and bioavailability (in words) [11]: acceptable

SMILES: CCc1c(CC2CCCCC2)nc(SCc2cc(-c3ccc(SC)cc3)[nH]n2)[nH]c1=O [compound 181]
- pharmacokinetic properties and bioavailability (in words) [11]: acceptable

SMILES: O=c1[nH]c(SC2O[C@H](CO)[C@H](O)[C@@H](O)[C@@H]2O)nc(Cc2ccccc2)c1Cc1ccccc1 (some centres unmarked) [compound 185]
- IC50 (HBV): 200 nM

SMILES: O=c1[nH]c(SC2OC[C@H](O)[C@@H](O)[C@@H]2O)nc(Cc2ccccc2)c1Cc1ccccc1 (some centres unmarked) [compound 186]
- IC50 (HBV): 200 nM

SMILES: O=C(CCCCSc1nc(-c2ccc(-c3ccccc3)cc2)cc(=O)[nH]1)NO [compound 195]
- outcome in in vivo malaria mouse model (malaria): failed

SMILES: COc1cc(-c2nc(SCC(=O)c3ccc(Cl)cc3)[nH]c(=O)c2C#N)ccc1OCc1ccccc1 [compound 197]
- LC50: MCF7 (breast cancer MCF7 cells): 1.9 µg/mL (≈ 3.67 µM)
- LC50: HePG2 (HePG2 cells): 20.9 µg/mL (≈ 40.3 µM)
- LC50: HT29 [12]: 10.1 µg/mL (≈ 19.5 µM)

SMILES: N#Cc1c(-c2c(Cl)cccc2Cl)nc(SCC(=O)c2ccc(Br)cc2)[nH]c1=O [compound 199]
- inhibitory effect toward HOP-92 [13]: > 50%

SMILES: CCc1c(CC2CCCCC2)nc(SCC(=O)Nc2cc(F)cc(F)c2)[nH]c1=O [compound 211]
- ZIKV EC50 (Vero cells) (ZIKV): inactive
